According to article PMC9311539, “Antibacterial Activity against Clinical Isolates and In Vivo Efficacy of Coralmycins” (Antibiotics, 2022):
In brackets after ≈: the same amount, converted by molar mass. Read-outs that look alike come from different tables or passages of the source.

What was measured:
MSSA = test: MIC, broth microdilution, clinical isolates: MSSA; type: cell-based; settings: Staphylococcus aureus
Experimental: (§1) To assess the MICs for antibiotic susceptibility, Gram-positive bacteria isolated from human clinical specimens were obtained from several general hospitals in Seoul, Korea, during 2002–2018. Staphylococcus aureus Giorgio and Streptococcus pneumoniae ATCC49619 were used to test in vivo efficacies against […], in mice.
(§2) The MICs of the antimicrobial agents were determined by a twofold microdilution broth method, as described by the Clinical and Laboratory Standards Institute. Briefly, test organisms were grown on Mueller–Hinton agar (MHA, BD Difco, Sparks, MD, USA) plates, subcultured into cation-adjusted Mueller–Hinton broth (CAMHB, BD Difco, Sparks, MD, USA), and incubated for 18 h at 35 °C. For S. pneumoniae culture, 5% sheep blood (Hanil Comed, Seongnam, Korea) was added. The cultured bacteria were diluted using phosphate-buffered saline (PBS) to achieve a bacterial cell density of approximately 5 × 10^6 CFU/mL. All test organisms were loaded into 96-well plates containing serial dilutions of the antimicrobial agents to achieve a concentration of 5 × 10^4 CFU/well. The plates were incubated at 35 °C for 18–20 h and examined for bacterial growth.

MRSA = test: MIC, broth microdilution, clinical isolates: MRSA; type: cell-based, Staphylococcus aureus; settings: for MIC50 / MIC90: Staphylococcus aureus, MRSA
Experimental: as §1, §2

[1] = tested on: CNS (coagulase-negative staphylococci); test: MIC, broth microdilution, clinical isolates: CNS; type: cell-based
Experimental: as §1, §2

VRE = test: MIC, broth microdilution, clinical isolates: VRE; type: cell-based, vancomycin-resistant Enterococcus; settings: Enterococcus, VRE
Experimental: as §1, §2

S. pneumoniae = test: MIC, broth microdilution, clinical isolates: S. pneumoniae; type: cell-based, Streptococcus pneumoniae
Experimental: as §1, §2

[2] = tested on: Vancomycin-sensitive E. faecalis; test: MIC, broth microdilution, clinical isolates: vancomycin-sensitive E. faecalis; type: cell-based, Enterococcus faecalis; settings: Enterococcus faecalis
Experimental: as §1, §2

[3] = tested on: Vancomycin-sensitive E. faecium; test: MIC, broth microdilution, clinical isolates: vancomycin-sensitive E. faecium; type: cell-based, Enterococcus faecium; settings: Enterococcus faecium
Experimental: as §1, §2

S. aureus Giorgio [4] = test: MIC against S. aureus Giorgio; type: cell-based, Staphylococcus aureus; settings: Staphylococcus aureus
Experimental: as §2

S. pneumoniae ATCC49619 [5] = test: MIC against S. pneumoniae ATCC49619; type: cell-based; settings: Streptococcus pneumoniae, ATCC49619
Experimental: as §2

MRSA CCARM 3167 [6] = test: MIC against MRSA CCARM 3167; type: cell-based; settings: Staphylococcus aureus
Experimental: as §2

VRE 3 [7] = test: MIC against VRE 3; type: cell-based, vancomycin-resistant Enterococcus; settings: Enterococcus
Experimental: as §2

S. aureus Giorgio [8] = test: Time-kill assay, S. aureus Giorgio; type: cell-based, Staphylococcus aureus
Experimental: (§3) Time-kill analysis was performed by the NCCLS M26-A method. The test organisms (S. aureus Giorgio, S. pneumoniae ATCC49619, MRSA CCARM 3167, and VRE 3) incubated in CAMHB for 18 h at 35 °C were diluted to 10^5 CFU/mL with fresh CAMHB, and the diluted cultures were preincubated for 2 h. For S. pneumoniae culture, 5% sheep blood (Hanil Comed, Seongnam, Korea) was added. […] Culture aliquots (0.1 mL) were removed after 0, 2, 4, 6 and 24 h of incubation, and serial 10-fold dilutions were prepared in saline as needed. The numbers of viable cells were determined on drug-free MHA plates after 20 h of incubation. A compound was considered bactericidal if the original inoculum was reduced by 3 log CFU/mL (99.9%) at each concentration or was considered bacteriostatic if the inoculum was reduced by 0–3 log CFU/mL.

S. pneumoniae ATCC49619 [9] = test: Time-kill assay, S. pneumoniae ATCC49619; type: cell-based, Streptococcus pneumoniae
Experimental: as §3

MRSA CCARM 3167 [10] = test: Time-kill assay, MRSA CCARM 3167; type: cell-based, Staphylococcus aureus
Experimental: as §3

S. aureus Giorgio [11] = test: Neutropenic mouse thigh infection model; type: in vivo, female ICR mice
Experimental: (§4) For the respiratory tract infection model, neutropenic mice were anesthetized and intranasally inoculated with a 50 μL suspension of S. pneumoniae ATCC49619 (4.4 × 10^8 CFU/mL). For the thigh infection model, the neutropenic mice were administered an intramuscular injection of a 100 μL suspension of S. aureus Giorgio (1 × 10^6 CFU/mL) into both thighs. For both models, four mice were included in each group. At 2 h after infection, two mice were sacrificed, and the infected thighs or lungs (n = 4) were excised to determine the initial bacterial levels. […] At 24 h after infection, the mice were sacrificed by cervical dislocation; their thighs or lungs were removed, homogenized, serially diluted with saline, and plated onto MHA to count the number of bacteria remaining. The number of viable bacterial cells (CFU) in the thighs or lungs of vehicle- and drug-treated mice was determined.

S. pneumoniae ATCC49619 [12] = test: Neutropenic mouse respiratory tract infection model; type: in vivo, female ICR mice; settings: for reduction of the starting bacterial burden compared to the 2-h control group: second trial
Experimental: as §4

S. aureus = tested on: S. aureus; design: method as in PMID 28416551; settings: s.c., cited from earlier work
[13] = cited from earlier work
VRE 3 [14] = test: Time-kill assay, VRE 3; type: cell-based, vancomycin-resistant Enterococcus
Experimental: as §3

in vivo = settings: female, ICR, mouse, plasma
[15] = s.c. 4 and 20 mg/kg at 3 and 6 h after infection
[16] = 32 clinical isolates, read-out: MIC50
[17] = 32 clinical isolates, read-out: MIC90

SMILES: CN[C@H](CC(C)C)C(=O)N[C@H]1C(=O)N[C@@H](CC(N)=O)C(=O)N[C@H]2C(=O)N[C@H]3C(=O)N[C@H](C(=O)N[C@H](C(=O)O)c4cc(O)cc(O)c4-c4cc3ccc4O)[C@H](O)c3ccc(c(Cl)c3)Oc3cc2cc(c3O[C@@H]2O[C@H](CO)[C@@H](O)[C@H](O)[C@H]2O[C@H]2C[C@](C)(N)[C@H](O)[C@H](C)O2)Oc2ccc(cc2Cl)[C@H]1O [Vancomycin]
- MIC50 (MSSA): 1 µg/mL (≈ 0.69 µM)
- MIC90 (MSSA): 2 µg/mL (≈ 1.38 µM)
- MIC50 (MRSA): 1 µg/mL (≈ 0.69 µM)
- MIC90 (MRSA): 2 µg/mL (≈ 1.38 µM)
- MIC50 [1]: 2 µg/mL (≈ 1.38 µM)
- MIC90 [1]: 4 µg/mL (≈ 2.76 µM)
- MIC50 (VRE): > 32 µg/mL
- MIC90 (VRE): > 32 µg/mL
- MIC90 (S. pneumoniae; 27 clinical isolates): 0.5 µg/mL (≈ 0.345 µM)
- MIC50 (S. pneumoniae; Streptococcus pneumoniae): 0.25 µg/mL (≈ 0.173 µM)
- MIC90 (S. pneumoniae; Streptococcus pneumoniae): 0.5 µg/mL (≈ 0.345 µM)
- MIC50 [2]: 2 µg/mL (≈ 1.38 µM)
- MIC90 [2]: 2 µg/mL (≈ 1.38 µM)
- MIC50 [3]: 1 µg/mL (≈ 0.69 µM)
- MIC90 [3]: 2 µg/mL (≈ 1.38 µM)
- MIC (S. aureus Giorgio [4]): 2 µg/mL (≈ 1.38 µM)
- MIC (S. pneumoniae ATCC49619 [5]): 0.5 µg/mL (≈ 0.345 µM)
- MIC (MRSA CCARM 3167 [6]): 2 µg/mL (≈ 1.38 µM)
- MIC (VRE 3 [7]): 64 µg/mL (≈ 44.2 µM)
- time-kill activity (S. aureus Giorgio [8]; 2× and 4× MIC, 24 h): bactericidal (considered bactericidal if the original inoculum was reduced by 3 log CFU/mL (99.9%) at each concentration)
- time-kill activity (S. pneumoniae ATCC49619 [9]; 2× and 4× MIC, 24 h): bactericidal (considered bactericidal if the original inoculum was reduced by 3 log CFU/mL (99.9%) at each concentration)
- time-kill activity (MRSA CCARM 3167 [10]; 2× and 4× MIC, 24 h): bactericidal (considered bactericidal if the original inoculum was reduced by 3 log CFU/mL (99.9%) at each concentration)
- antibacterial effect in thigh infection model (S. aureus Giorgio [11]; [15]): bacteriostatic activity
- in vivo effect (bacteriostatic or bactericidal) (S. pneumoniae ATCC49619 [12]; 4 mg/kg bid s.c.): bacteriostatic
- in vivo effect (bacteriostatic or bactericidal) (S. pneumoniae ATCC49619 [12]; 20 mg/kg bid s.c.): bactericidal
- reduction of the starting bacterial burden compared to the 2-h control group (S. pneumoniae ATCC49619 [12]; 20 mg/kg bid): 1.46 log10 CFU/lung
- in vivo effect (S. aureus; high doses of 20–320 mg/kg bid): bactericidal effects
- in vivo effect (S. aureus; low doses of 0.3–5 mg/kg bid): bacteriostatic effects
- bound to plasma proteins [13]: 10–50%

SMILES: CO[C@@H](C(N)=O)[C@H](NC(=O)c1ccc(NC(=O)c2ccc([N+](=O)[O-])cc2)cc1)C(=O)Nc1ccc(C(=O)Nc2ccc(C(=O)Nc3ccc(C(=O)O)cc3OC(C)C)c(O)c2OC(C)C)cc1 [DH-coralmycin A]
- MIC50 (MSSA; 26 clinical isolates, read-out: MIC50): 1 µg/mL (≈ 1.09 µM)
- MIC90 (MSSA; 26 clinical isolates, read-out: MIC90): 2 µg/mL (≈ 2.17 µM)
- MIC50 (MRSA; 42 clinical isolates, read-out: MIC50): 4 µg/mL (≈ 4.35 µM)
- MIC90 (MRSA; 42 clinical isolates, read-out: MIC90): 8 µg/mL (≈ 8.7 µM)
- times less active than coralmycin A as evidenced by the MIC90 (MRSA; against MRSA, CNS, and VRE): 8 to 16 times
- MIC50 ([1]; 31 clinical isolates, read-out: MIC50): 1 µg/mL (≈ 1.09 µM)
- MIC90 ([1]; 31 clinical isolates, read-out: MIC90): 16 µg/mL (≈ 17.4 µM)
- MIC50 (VRE; 46 clinical isolates, read-out: MIC50): 4 µg/mL (≈ 4.35 µM)
- MIC90 (VRE; 46 clinical isolates, read-out: MIC90): 16 µg/mL (≈ 17.4 µM)
- MIC50 (S. pneumoniae; Streptococcus pneumoniae, 27 clinical isolates, read-out: MIC50): 0.5 µg/mL (≈ 0.544 µM)
- MIC90 (S. pneumoniae; Streptococcus pneumoniae, 27 clinical isolates, read-out: MIC90): 4 µg/mL (≈ 4.35 µM)
- MIC50 [2, 16]: 2 µg/mL (≈ 2.17 µM)
- MIC90 [2, 17]: 4 µg/mL (≈ 4.35 µM)
- MIC50 [3, 16]: 1 µg/mL (≈ 1.09 µM)
- MIC90 [3, 17]: 4 µg/mL (≈ 4.35 µM)
- MIC (S. aureus Giorgio [4]; read-out: MIC): 0.06 µg/mL (≈ 0.0652 µM)
- MIC (S. pneumoniae ATCC49619 [5]; read-out: MIC): 0.25 µg/mL (≈ 0.272 µM)
- MIC (MRSA CCARM 3167 [6]; read-out: MIC): 0.25 µg/mL (≈ 0.272 µM)
- MIC (VRE 3 [7]; read-out: MIC): 2 µg/mL (≈ 2.17 µM)
- time-kill activity (S. aureus Giorgio [8]; 1× MIC): bacteriostatic (considered bacteriostatic if the inoculum was reduced by 0–3 log CFU/mL)
- time-kill activity (S. aureus Giorgio [8]; 2× and 4× MIC, 24 h): bactericidal (considered bactericidal if the original inoculum was reduced by 3 log CFU/mL (99.9%) at each concentration)
- time-kill activity (S. pneumoniae ATCC49619 [9]; 1× MIC): bacteriostatic (considered bacteriostatic if the inoculum was reduced by 0–3 log CFU/mL)
- time-kill activity (S. pneumoniae ATCC49619 [9]; 2× and 4× MIC, 24 h): bactericidal (considered bactericidal if the original inoculum was reduced by 3 log CFU/mL (99.9%) at each concentration)
- time-kill activity (MRSA CCARM 3167 [10]; 1× MIC): bacteriostatic (considered bacteriostatic if the inoculum was reduced by 0–3 log CFU/mL)
- time-kill activity (MRSA CCARM 3167 [10]; 2× and 4× MIC, 24 h): bactericidal (considered bactericidal if the original inoculum was reduced by 3 log CFU/mL (99.9%) at each concentration)
- time-kill activity (VRE 3 [14]; 1× MIC): bacteriostatic (considered bacteriostatic if the inoculum was reduced by 0–3 log CFU/mL)
- time-kill activity (VRE 3 [14]; 2× and 4× MIC, 24 h): bactericidal (considered bactericidal if the original inoculum was reduced by 3 log CFU/mL (99.9%) at each concentration)
- antibacterial effect in thigh infection model (S. aureus Giorgio [11]; 20 mg/kg bid): almost no antibacterial effect
- antibacterial effect in thigh infection model (S. aureus Giorgio [11]; [15]): almost no antibacterial effect
- in vivo effect (bacteriostatic or bactericidal) (S. pneumoniae ATCC49619 [12]; 4 mg/kg bid s.c.): static effect
- in vivo effect (bacteriostatic or bactericidal) (S. pneumoniae ATCC49619 [12]; 20 mg/kg bid s.c.): static effect
- in vivo effect (bacteriostatic or bactericidal) (S. pneumoniae ATCC49619 [12]; 100 mg/kg bid s.c.): bactericidal effects
- antibacterial effect in respiratory tract infection model (S. pneumoniae ATCC49619 [12]; first experiment, s.c. 4 and 20 mg/kg at 3 and 6 h after infection): significant antibacterial effects
- reduction of the starting bacterial burden compared to the 2-h control group (S. pneumoniae ATCC49619 [12]; s.c. 100 mg/kg bid): 0.96 log10 CFU/lung
- half-life (in vivo; iv, 2 mg/kg): 2.16 ± 1.08 h
- half-life (in vivo; sc, 20 mg/kg): 7.01 ± 1.22 h
